In PubChem BioAssay (NCI):
Where “and” joins values, the source holds several entries; their conditions need not be identical. Identical values can stand only once.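 Protocol summary: plate cells (96-well), add compound at 5 concentrations, incubate 48 h, interpolate endpoints linearly. GI50: concentration for 50% inhibition of growth. TGI: total growth inhibition.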

Experiments:
Test in all cases: growth of human tumour cells (NCI), 48 h
[1] = tested on: HCT-116 colon
[2] = tested on: HOP-18 NSCLC
[3] = tested on: NCI-H23 lung
[4] = tested on: OVCAR-4 ovarian
[5] = tested on: UACC-257 melanoma
[6] = tested on: 786-0 renal
[7] = tested on: HOP-92 NSCLC
[8] = tested on: SF-539 CNS
[9] = tested on: ACHN renal
[10] = tested on: RPMI-8226 leukemia
[11] = tested on: K-562 leukemia
[12] = tested on: M19-MEL melanoma
[13] = tested on: A498 renal
[14] = tested on: UO-31 renal
[15] = tested on: UACC-62 melanoma
[16] = tested on: SNB-75 CNS
[17] = tested on: HCT-15 colon
[18] = tested on: U251 CNS
[19] = tested on: HCC-2998 colon
[20] = tested on: TK-10 renal
[21] = tested on: MALME-3M melanoma
[22] = tested on: LXFL 529 NSCLC
[23] = tested on: A549 NSCLC
[24] = tested on: COLO 205 colon
[25] = tested on: NCI-H460 lung
[26] = tested on: OVCAR-5 ovarian
[27] = tested on: DLD-1 colon
[28] = tested on: HT29 colon
[29] = tested on: SK-MEL-5 melanoma
[30] = tested on: M14 melanoma
[31] = tested on: LOX IMVI melanoma
[32] = tested on: HOP-62 NSCLC
[33] = tested on: NCI-H226 lung
[34] = tested on: SF-295 CNS
[35] = tested on: EKVX NSCLC
[36] = tested on: HL-60(TB) leukemia
[37] = tested on: SK-MEL-28 melanoma
[38] = tested on: SW-620 colon
[39] = tested on: CCRF-CEM leukemia
[40] = tested on: SNB-78 CNS
[41] = tested on: OVCAR-8 ovarian
[42] = tested on: DMS 114 small cell lung
[43] = tested on: NCI-H522 lung
[44] = tested on: SR leukemia
[45] = tested on: KM12 colon
[46] = tested on: XF 498 CNS
[47] = tested on: SK-OV-3 ovarian
[48] = tested on: SN12C renal
[49] = tested on: SF-268 CNS
[50] = tested on: CAKI-1 renal
[51] = tested on: SK-MEL-2 melanoma
[52] = tested on: IGROV1 ovarian
[53] = tested on: MOLT-4 leukemia
[54] = tested on: KM20L2 colon
[55] = tested on: T-47D breast
[56] = tested on: RXF 393 renal
[57] = tested on: DMS 273 small cell lung
[58] = tested on: DU-145 prostate
[59] = tested on: MCF7 breast
[60] = tested on: HS 578T breast
[61] = tested on: MDA-MB-231 breast
[62] = tested on: NCI/ADR-RES ovarian
[63] = tested on: MDA-MB-435
[64] = tested on: PC-3 prostate
[65] = tested on: OVCAR-3 ovarian
[66] = tested on: BT-549 breast
[67] = tested on: SNB-19 CNS
[68] = tested on: MDA-N

O=C(Cc1ccccc1)N/N=C(/c1nc2ccc([N+](=O)[O-])cc2[nH]c1=O)C(O)c1ccco1 (stereo not drawn)
TGI [1]: > 100 µM
TGI [2]: > 100 µM
TGI [3]: > 100 µM
TGI [4]: > 100 µM
TGI [5]: > 100 µM
TGI [6]: > 100 µM
TGI [7]: > 100 µM
TGI [8]: > 100 µM
TGI [9]: > 100 µM
TGI [10]: > 100 µM
TGI [11]: > 100 µM
TGI [12]: > 100 µM
TGI [13]: > 100 µM
TGI [14]: > 100 µM
TGI [15]: > 100 µM
TGI [16]: > 100 µM
TGI [17]: > 100 µM
TGI [18]: > 100 µM
TGI [19]: > 100 µM
TGI [20]: > 100 µM
TGI [21]: > 100 µM
TGI [22]: > 100 µM
TGI [23]: > 100 µM
TGI [24]: > 100 µM
TGI [25]: > 100 µM
TGI [26]: > 100 µM
TGI [27]: > 100 µM
TGI [28]: > 100 µM
TGI [29]: > 100 µM
TGI [30]: > 100 µM
TGI [31]: > 100 µM
TGI [32]: > 100 µM
TGI [33]: > 100 µM
TGI [34]: > 100 µM
TGI [35]: > 100 µM
TGI [36]: > 100 µM
TGI [37]: > 100 µM
TGI [38]: > 100 µM
TGI [39]: > 100 µM
TGI [40]: > 100 µM
TGI [41]: > 100 µM
TGI [42]: > 100 µM
TGI [43]: > 100 µM
TGI [44]: > 100 µM
TGI [45]: > 100 µM
TGI [46]: > 100 µM
TGI [47]: > 100 µM
TGI [48]: > 100 µM
TGI [49]: > 100 µM
TGI [50]: > 100 µM
TGI [51]: > 100 µM
TGI [52]: > 100 µM
TGI [53]: > 100 µM

CC[C@H](C)C(=O)O[C@H]1C[C@@H](C)C=C2C=C[C@H](C)[C@H](CC[C@@H]3C[C@@H](O)CC(=O)O3)[C@H]21
GI50 [1]: 3.77 µM and 2.05 µM
TGI [1]: 24.5 µM and 16.2 µM
TGI [2]: > 30 µM
GI50 [3]: 5.37 µM and 8.14 µM
GI50 [4]: 10.9 µM and 17.6 µM
TGI [4]: 61.1 µM and > 55.5 µM and > 30 µM
GI50 [5]: 32.5 µM and > 46.2 µM
TGI [5]: > 100 µM
GI50 [6]: 12.9 µM and 6.14 µM
TGI [6]: > 100 µM and 20.8 µM and > 30 µM
GI50 [7]: 0.172 µM and 0.102 µM
TGI [7]: 0.649 µM and 0.657 µM and 0.141 µM
TGI [54]: > 30 µM
GI50 [9]: 3.43 µM and 1.38 µM
TGI [9]: 29.8 µM and 6.03 µM and 23.4 µM
GI50 [10]: 8.88 µM and 8.95 µM
TGI [10]: > 100 µM and 53.7 µM and > 30 µM
GI50 [11]: 27.7 µM and 12.8 µM
TGI [11]: > 100 µM
TGI [12]: > 30 µM
GI50 [13]: 0.283 µM and 0.162 µM
TGI [13]: 2.2 µM and 1.1 µM and 2.82 µM
GI50 [14]: 11 µM and 4.7 µM
TGI [14]: 80.7 µM and 29.6 µM and 14.2 µM
GI50 [15]: 2.83 µM and 2.59 µM
TGI [15]: 18.9 µM and 17.2 µM and > 30 µM
GI50 [55]: 32.5 µM and 19.6 µM
TGI [55]: > 100 µM
GI50 [17]: 5.46 µM and 1.47 µM
TGI [17]: > 100 µM
GI50 [19]: 26.3 µM and 25.1 µM
TGI [19]: > 100 µM
GI50 [56]: 3.48 µM
TGI [56]: 31.8 µM and 13.8 µM and 17.3 µM
GI50 [20]: 26.3 µM and 19.3 µM
TGI [20]: > 100 µM
GI50 [21]: 14.1 µM and 15.2 µM
TGI [21]: > 100 µM and 31.6 µM and > 30 µM
TGI [22]: > 30 µM
TGI [57]: > 30 µM
GI50 [58]: 43.8 µM and 35.5 µM
TGI [58]: > 100 µM
GI50 [23]: 12.1 µM
TGI [23]: > 100 µM
GI50 [59]: 32.1 µM and 14.9 µM
TGI [59]: > 100 µM
GI50 [60]: 5.08 µM and 5.36 µM
TGI [60]: > 100 µM
GI50 [61]: 0.495 µM and 0.31 µM
TGI [61]: 3.5 µM and 1.51 µM
GI50 [24]: 14.6 µM and 15.3 µM
TGI [24]: 51.3 µM and > 52.4 µM and 14.7 µM
GI50 [25]: 11.4 µM and 5.59 µM
TGI [25]: > 100 µM
GI50 [26]: 12.5 µM and 10.3 µM
TGI [26]: > 100 µM and 32.9 µM and > 30 µM
TGI [27]: > 30 µM
GI50 [28]: 24.7 µM and 21.4 µM
TGI [28]: > 100 µM
GI50 [29]: 10.7 µM and 2.97 µM
TGI [29]: > 100 µM and 10.7 µM and 16.1 µM
GI50 [30]: 6.25 µM and 7.89 µM
TGI [30]: > 100 µM
GI50 [62]: 2.63 µM and 2.95 µM
TGI [62]: > 100 µM
GI50 [31]: 0.932 µM
TGI [31]: 21.3 µM and 6.82 µM and 7.71 µM
TGI [32]: > 100 µM
GI50 [33]: 10.1 µM and 6.22 µM
TGI [33]: 54.7 µM and > 51 µM and > 30 µM
GI50 [35]: 4.32 µM and 6.61 µM
TGI [35]: > 100 µM
GI50 [36]: 15.9 µM and 19.9 µM
TGI [36]: 60.6 µM and 50.6 µM and > 30 µM
GI50 [37]: 14.4 µM and 10.4 µM
TGI [37]: > 100 µM and 27.1 µM and > 30 µM
GI50 [38]: 10 µM and 10.1 µM
TGI [38]: > 100 µM
GI50 [39]: 27.4 µM and 13.5 µM
TGI [39]: > 100 µM
GI50 [63]: 20.2 µM and 15 µM
TGI [63]: > 100 µM
GI50 [64]: 0.967 µM and 1.76 µM
TGI [64]: > 100 µM
GI50 [41]: 2.96 µM and 6.79 µM
TGI [41]: > 100 µM
TGI [42]: > 30 µM
GI50 [43]: 1.98 µM and 1.66 µM
TGI [43]: 8.53 µM and 22.3 µM
GI50 [44]: 3 µM and 3.5 µM
TGI [44]: 17.3 µM and 25.4 µM and > 30 µM
GI50 [45]: 26.4 µM
TGI [45]: > 100 µM
GI50 [47]: 7.58 µM and 6.68 µM
TGI [47]: > 100 µM
GI50 [48]: 3.02 µM
GI50 [50]: 2.14 µM and 1.9 µM
TGI [50]: 6.59 µM and 6.21 µM and 4.78 µM
GI50 [51]: 1.7 µM and 1.12 µM
TGI [51]: 8.32 µM and 9.48 µM and > 30 µM
GI50 [52]: 3.22 µM and 5.31 µM
TGI [52]: 23.2 µM and 29 µM and > 30 µM
GI50 [53]: 49.2 µM and 21.4 µM
TGI [53]: > 100 µM and 53.4 µM and > 30 µM
GI50 [65]: 16.2 µM and 25.2 µM
TGI [65]: > 100 µM
GI50 [66]: 11.3 µM and 8.48 µM
TGI [66]: > 100 µM and 25.2 µM

N#CC(C#N)=C(N)/C(C#N)=C/c1ccc(O)c(O)c1
TGI [1]: > 100 µM
TGI [3]: > 100 µM
TGI [4]: > 100 µM
TGI [5]: > 100 µM
TGI [6]: > 100 µM
TGI [7]: > 100 µM
TGI [8]: > 100 µM
TGI [54]: > 100 µM
TGI [67]: > 100 µM
TGI [9]: > 100 µM
TGI [10]: > 100 µM
TGI [68]: > 100 µM
TGI [11]: > 100 µM
TGI [12]: > 100 µM
TGI [13]: > 100 µM
TGI [14]: > 100 µM
TGI [15]: > 100 µM
TGI [16]: > 100 µM
TGI [55]: > 100 µM
TGI [17]: > 100 µM
TGI [18]: > 100 µM
TGI [19]: > 100 µM
TGI [56]: > 100 µM
TGI [20]: > 100 µM
TGI [21]: > 100 µM
TGI [22]: > 100 µM
TGI [57]: > 100 µM
TGI [58]: > 100 µM
TGI [23]: > 100 µM
TGI [59]: > 100 µM
TGI [60]: > 100 µM
TGI [61]: > 100 µM
TGI [24]: > 100 µM
TGI [25]: > 100 µM
TGI [26]: > 100 µM
TGI [27]: > 100 µM
TGI [28]: > 100 µM
TGI [29]: > 100 µM
TGI [30]: > 100 µM
TGI [62]: > 100 µM
TGI [31]: > 100 µM
TGI [32]: > 100 µM
TGI [33]: > 100 µM
TGI [34]: > 100 µM
TGI [35]: > 100 µM
TGI [36]: > 83.3 µM
TGI [37]: > 100 µM
TGI [38]: > 100 µM
TGI [39]: > 100 µM
TGI [63]: > 100 µM
TGI [64]: > 100 µM
TGI [40]: > 100 µM
TGI [41]: > 100 µM
TGI [42]: > 100 µM
TGI [43]: > 100 µM
TGI [44]: > 100 µM
TGI [45]: > 100 µM
TGI [46]: > 100 µM
TGI [47]: > 100 µM
TGI [48]: > 100 µM
TGI [49]: > 100 µM
TGI [50]: > 100 µM
TGI [51]: > 100 µM
TGI [52]: > 100 µM
TGI [53]: > 100 µM
TGI [65]: > 100 µM
TGI [66]: > 100 µM
